# Experiments:
# CYP2C19 = CYP2C19 (Homo sapiens, UniProt P33261); test: Direct CYP inhibition assay in pooled HLMs, CYP2C19 (S-mephenytoin); conditions: read-out: IC50 against CYP2C19; pooled HLMs 0.2 mg/mL; substrate (S)-mephenytoin 100 μM; 10 min; 95% CI in parentheses
# [1] = test system: CYP isoforms (CYP1A2, CYP2A6, CYP2B6, CYP2C8, CYP2C9, CYP2C19, CYP2D6, CYP2E1, and CYP3A4); test: Direct CYP inhibition assay in pooled HLMs, nine CYP isoforms (summary statement); conditions: up to 50 μM
# CYP2A6 [2] = biological target: T1, CYP2A6 (Homo sapiens, UniProt P11509); test: Direct CYP inhibition assay in pooled HLMs, CYP2A6 (coumarin); assay type: in vitro ADME; conditions: pooled HLMs 0.2 mg/mL; substrate coumarin 5 μM; 10 min; 95% CI in parentheses; read-out: IC50 against CYP2A6
# T1 sequence (P11509 1-494): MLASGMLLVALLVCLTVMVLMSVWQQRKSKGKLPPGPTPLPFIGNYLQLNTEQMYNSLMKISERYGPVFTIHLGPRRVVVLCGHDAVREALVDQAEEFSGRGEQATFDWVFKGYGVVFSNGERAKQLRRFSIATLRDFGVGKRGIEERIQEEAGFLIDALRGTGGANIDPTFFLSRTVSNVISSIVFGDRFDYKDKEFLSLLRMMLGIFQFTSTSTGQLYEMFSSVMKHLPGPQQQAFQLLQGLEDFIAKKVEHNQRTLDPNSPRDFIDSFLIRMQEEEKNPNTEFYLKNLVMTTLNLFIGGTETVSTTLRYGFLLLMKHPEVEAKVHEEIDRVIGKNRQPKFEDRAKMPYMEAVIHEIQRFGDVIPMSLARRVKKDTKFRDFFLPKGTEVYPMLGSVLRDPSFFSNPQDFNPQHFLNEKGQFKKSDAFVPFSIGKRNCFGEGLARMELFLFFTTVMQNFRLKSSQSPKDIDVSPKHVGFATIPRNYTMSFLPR
# CYP2A6 [3] = biological target: T1, CYP2A6; test: Metabolism-dependent inhibition assay (IC50 shift) in pooled HLMs, CYP2A6; conditions: substrate coumarin; for IC50: pooled HLMs, 95% CI in parentheses
# Method: (§1) The experiments for determining metabolism-dependent inhibition were conducted utilizing a non-dilution method. […] The pre-incubation was initiated by the addition of 1 mM NADPH and incubation for 30 min. Subsequently, final incubation was performed with the addition of a substrate (5 μM coumarin or 50 μM bupropion) in the presence of NADPH for 10 min; the total volume of the mixture was 200 μL. […] Mixtures were subjected to centrifugation at 3000× g for 20 min at 4 °C, and the supernatants were analyzed using LC-MS/MS. The experiment was performed using three separate samples.
# (§2) The CYP-mediated activities in the presence of test substances were expressed as percentages of the corresponding control values.
# CYP2B6 [4] = biological target: T2, CYP2B6 (Homo sapiens, UniProt P20813); test: Determination of CYP inhibition mode and Ki in pooled HLMs, CYP2B6-mediated bupropion hydroxylation
# T2 sequence (P20813 1-491): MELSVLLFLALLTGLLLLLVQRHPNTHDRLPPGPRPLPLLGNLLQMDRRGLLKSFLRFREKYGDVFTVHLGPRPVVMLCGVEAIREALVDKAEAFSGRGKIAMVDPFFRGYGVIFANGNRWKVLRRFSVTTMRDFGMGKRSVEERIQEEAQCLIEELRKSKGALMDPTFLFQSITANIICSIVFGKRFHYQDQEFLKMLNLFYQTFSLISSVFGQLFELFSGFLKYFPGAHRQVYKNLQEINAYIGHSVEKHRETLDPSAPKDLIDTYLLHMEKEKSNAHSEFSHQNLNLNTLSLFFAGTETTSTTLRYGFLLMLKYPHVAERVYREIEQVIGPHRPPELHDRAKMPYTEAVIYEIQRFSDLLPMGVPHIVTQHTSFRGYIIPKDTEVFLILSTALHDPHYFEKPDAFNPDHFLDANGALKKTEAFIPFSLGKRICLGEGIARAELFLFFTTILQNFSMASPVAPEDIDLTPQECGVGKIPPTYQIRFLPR
# Method: (§3) A 5 min pre-incubation was performed prior to initiating reactions with the addition of 1 mM NADPH. After incubation at 37 °C for 10 min, 200 μL of ice-cold acetonitrile containing 100 nM carbamazepine as an internal standard was added to terminate the reaction. The samples were agitated and centrifuged at 4 °C for 20 min at 3000× g. The supernatants were transferred to a 96-well plate for LC-MS/MS analysis. The experiment was performed using three separate samples.
# (§4) Data acquired from the evaluation of enzyme inhibition using various concentrations of substrates and test compounds were fit to different models (competitive, noncompetitive, uncompetitive, or mixed), and inhibition constant (Ki) and goodness of fit values were obtained using GraphPad Prism. The appropriate type of inhibition was selected based on statistical goodness of fit tests including Akaike’s information criterion (AICc) with correction for small sample size and the standard deviation of the residuals (Sy.x).
# CYP2B6 [5] = biological target: T2, CYP2B6; test: Direct CYP inhibition assay in pooled HLMs, CYP2B6 (bupropion); conditions: read-out: IC50 against CYP2B6; pooled HLMs 0.2 mg/mL; substrate bupropion 50 μM; 10 min; 95% CI in parentheses
# CYP2A6 [6] = biological target: T1, CYP2A6; test: Determination of CYP inhibition mode and Ki in pooled HLMs, CYP2A6-mediated coumarin 7-hydroxylation
# Method: as §3, §4
# CYP2B6 [7] = biological target: T2, CYP2B6; test: Metabolism-dependent inhibition assay (IC50 shift) in pooled HLMs, CYP2B6; conditions: substrate bupropion
# Method: as §1, §2
# [8] = IC50 without NADPH/IC50 with NADPH
# [9] = best fit by AICc and Sy.x, Dixon plots
# Chain of CYP2C19 (P33261 whole entry, canonical isoform): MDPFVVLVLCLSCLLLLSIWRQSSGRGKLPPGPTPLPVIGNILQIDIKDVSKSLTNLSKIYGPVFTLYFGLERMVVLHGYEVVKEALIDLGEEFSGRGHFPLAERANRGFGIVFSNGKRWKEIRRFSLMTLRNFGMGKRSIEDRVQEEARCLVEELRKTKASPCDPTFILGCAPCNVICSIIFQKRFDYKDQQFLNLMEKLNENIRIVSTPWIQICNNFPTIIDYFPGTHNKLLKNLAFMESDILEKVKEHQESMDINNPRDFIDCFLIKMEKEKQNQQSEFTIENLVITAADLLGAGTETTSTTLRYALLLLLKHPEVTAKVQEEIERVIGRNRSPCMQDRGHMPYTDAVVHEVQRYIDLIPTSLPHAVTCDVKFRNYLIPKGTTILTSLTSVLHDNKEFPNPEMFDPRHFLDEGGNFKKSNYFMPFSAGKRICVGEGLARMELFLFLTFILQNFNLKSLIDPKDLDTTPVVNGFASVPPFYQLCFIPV
structure (smiles),measurement,setting,value
"COc1ccc2[nH]c([S+]([O-])Cc3ncc(C)c(OC)c3C)nc2c1 (stereo not drawn) [Omeprazole, reference compound]",IC50,CYP2C19,5.4 µM
"C=C(C)[C@H]1CC=C(C(=O)O)CC1 [(−)-PA, (−)-perillic acid]",Inhibition of activities of CYP isoforms (words),[1],did not significantly inhibit
same,Inhibition of activities of CYP isoforms (words),[1]; listed as PA,not significantly inhibited
"C=C(C)C1CC=C(C=O)CC1 (single isomer, unassigned; (-)) [(−)-PAH, (−)-Perillaldehyde]",IC50,CYP2A6 [2],3.64 µM
same,"IC50 fold-shift, CYP2A6",CYP2A6 [3]; [8],1.03
same,IC50,"CYP2A6 [3]; read-out: IC50, pre-incubation with NADPH, CYP2A6, 30 min pre-incubation with NADPH",7.99 µM
same,IC50,"CYP2A6 [3]; read-out: IC50, pre-incubation without NADPH, CYP2A6, 30 min pre-incubation without NADPH",8.25 µM
same,"Type of inhibition, CYP2B6",CYP2B6 [4]; [9],mixed inhibition model
same,"Ki, CYP2B6, uncompetitive model (not selected)","CYP2B6 [4]; pooled HLMs, bupropion, 95% CI in parentheses",2.77 (2.31–3.28) μM
same,Ki,"CYP2B6 [4]; read-out: Ki, CYP2B6, mixed inhibition model (selected best fit), pooled HLMs, bupropion 12.5–100 μM, 95% CI in parentheses",3.05 µM
same,IC50,CYP2B6 [5],6.15 µM
same,"Type of inhibition, CYP2A6",CYP2A6 [6]; [9],mixed inhibition model
same,"Ki, CYP2A6, uncompetitive model (not selected)","CYP2A6 [6]; pooled HLMs, coumarin, 95% CI in parentheses",2.40 (2.04–2.82) μM
same,Ki,"CYP2A6 [6]; read-out: Ki, CYP2A6, mixed inhibition model (selected best fit), pooled HLMs, coumarin 1.25–10 μM, 95% CI in parentheses",1720 nM
same,"IC50 fold-shift, CYP2B6",CYP2B6 [7]; [8],0.78
same,IC50,"CYP2B6 [7]; read-out: IC50, pre-incubation without NADPH, CYP2B6, pooled HLMs, 30 min pre-incubation without NADPH, 95% CI in parentheses",11.9 µM
same,IC50,CYP2C19,18 µM
"C=C(C)C1CC=C(C=O)CC1 (single isomer, unassigned; (+)) [(+)-PAH, (+)-perillaldehyde]",IC50,CYP2A6 [2],10.6 µM
same,IC50,CYP2B6 [5],29 µM
same,IC50,CYP2C19,50.5 µM
"N[C@@H]1C[C@H]1c1ccccc1 (racemic) [Tranylcypromine, reference compound]",IC50,CYP2A6 [2],0.5 µM

# Reference: PMC11676982, “Heterotropic Activation of Cytochrome P450 3A4 by Perillyl Alcohol” (Pharmaceutics, 2024)
